Data: ChEMBL document CHEMBL5260819, “Design and synthesis of 2-phenylpyrimidine coumarin derivatives as anticancer agents” (Bioorg Med Chem Lett, 2017)
Activity calls are given as the source filed them. The calls are words filed in the database; no cut-off is given here.

Experiments:
[1] = tested on: KB; assay: Anticancer activity against human KB cells assessed as inhibition of cell growth; type: functional, cell-based
[2] = tested on: CNE-2; assay: Anticancer activity against human CNE-2 cells assessed as inhibition of cell growth; type: functional, cell-based
[3] = tested on: CAL-27; assay: Anticancer activity against human CAL-27 cells assessed as inhibition of cell growth; type: functional, cell-based
[4] = target: Telomerase reverse transcriptase (Homo sapiens, UniProt O14746); assay: Inhibition of telomerase activity in human CNE-2 cells; type: cell-based
[5] = tested on: CNE-2; assay: Induction of apoptosis in human CNE-2 cells assessed as late apoptotic cells at 1 uM incubated for 4 days by annexin V-FITC/PI double-staining method (reference value: 0.1%); type: functional; details: time 4 day
[6] = tested on: CNE-2; assay: Induction of apoptosis in human CNE-2 cells assessed as early apoptotic cells at 1 uM incubated for 4 days by annexin V-FITC/PI double-staining method (reference value: 8%); type: functional; details: time 4 day
[7] = tested on: CNE-2; assay: Induction of apoptosis in human CNE-2 cells assessed as live cells at 0.5 uM incubated for 4 days by annexin V-FITC/PI double-staining method (reference value: 91.9%); type: functional; details: time 4 day
[8] = tested on: CNE-2; assay: Induction of apoptosis in human CNE-2 cells assessed as dead cells at 0.5 uM incubated for 4 days by annexin V-FITC/PI double-staining method (reference value: 0%); type: functional; details: time 4 day
[9] = tested on: CNE-2; assay: Anticancer activity against human CNE-2 cells assessed as reduction in telomer length at 1 uM incubated for 8 days by TRF analysis; type: functional; details: time 8 day
[10] = tested on: CNE-2; assay: Induction of apoptosis in human CNE-2 cells assessed as early apoptotic cells at 0.5 uM incubated for 4 days by annexin V-FITC/PI double-staining method (reference value: 8%); type: functional; details: time 4 day
[11] = tested on: CNE-2; assay: Induction of apoptosis in human CNE-2 cells assessed as late apoptotic cells at 0.5 uM incubated for 4 days by annexin V-FITC/PI double-staining method (reference value: 0.1%); type: functional; details: time 4 day
[12] = tested on: CNE-2; assay: Anticancer activity against human CNE-2 cells assessed as shortening of telomer length at 0.5 uM incubated for 8 days by TRF analysis; type: functional, cell-based; details: time 8.0 day
[13] = tested on: CNE-2; assay: Induction of apoptosis in human CNE-2 cells assessed as live cells at 1 uM incubated for 4 days by annexin V-FITC/PI double-staining method (reference value: 91.9%); type: functional; details: time 4 day
[14] = tested on: CNE-2; assay: Anticancer activity against human CNE-2 cells assessed as induction of senescence by measuring shortening of telomer length at 0.5 to 1 uM incubated for 8 days by TRF analysis; type: functional, cell-based; details: dose 0.5-1 µM, time 8.0 day
[15] = tested on: CNE-2; assay: Induction of apoptosis in human CNE-2 cells assessed as dead cells at 1 uM incubated for 4 days by annexin V-FITC/PI double-staining method (reference value: 0%); type: functional; details: time 4 day

Sequence of Telomerase reverse transcriptase (O14746 whole entry): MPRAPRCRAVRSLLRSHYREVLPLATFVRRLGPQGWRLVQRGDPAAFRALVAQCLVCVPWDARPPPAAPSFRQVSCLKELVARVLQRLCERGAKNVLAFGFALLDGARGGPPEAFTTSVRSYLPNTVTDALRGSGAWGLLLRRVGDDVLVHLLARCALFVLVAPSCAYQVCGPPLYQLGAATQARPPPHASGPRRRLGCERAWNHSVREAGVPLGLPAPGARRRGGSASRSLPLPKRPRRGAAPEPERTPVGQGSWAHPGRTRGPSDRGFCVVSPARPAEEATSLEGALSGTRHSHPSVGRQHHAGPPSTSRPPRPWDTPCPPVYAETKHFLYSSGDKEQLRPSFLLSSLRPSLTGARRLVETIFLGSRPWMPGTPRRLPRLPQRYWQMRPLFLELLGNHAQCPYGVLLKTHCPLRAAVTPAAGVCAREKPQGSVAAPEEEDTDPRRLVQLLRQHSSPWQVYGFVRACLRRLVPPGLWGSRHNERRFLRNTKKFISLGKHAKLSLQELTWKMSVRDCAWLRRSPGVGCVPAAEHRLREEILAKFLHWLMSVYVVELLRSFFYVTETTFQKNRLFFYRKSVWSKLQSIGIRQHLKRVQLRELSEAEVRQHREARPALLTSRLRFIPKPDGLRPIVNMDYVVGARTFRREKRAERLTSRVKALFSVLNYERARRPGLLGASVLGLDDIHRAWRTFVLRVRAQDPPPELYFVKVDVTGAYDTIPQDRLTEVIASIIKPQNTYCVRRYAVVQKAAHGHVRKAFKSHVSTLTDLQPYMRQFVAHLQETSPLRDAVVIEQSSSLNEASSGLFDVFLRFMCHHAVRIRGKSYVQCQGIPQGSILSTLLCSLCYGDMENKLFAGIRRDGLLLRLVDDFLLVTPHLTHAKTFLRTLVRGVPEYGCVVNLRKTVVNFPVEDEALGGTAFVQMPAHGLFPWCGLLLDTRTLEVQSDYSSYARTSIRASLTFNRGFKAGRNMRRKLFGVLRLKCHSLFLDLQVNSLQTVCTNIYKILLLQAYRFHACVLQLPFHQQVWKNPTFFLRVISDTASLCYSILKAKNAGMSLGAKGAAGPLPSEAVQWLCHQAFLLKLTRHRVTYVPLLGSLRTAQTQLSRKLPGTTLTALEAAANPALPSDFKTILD

| SMILES | IC50 [1] [µM] | IC50 [4] [µM] | IC50 [2] [µM] | IC50 [3] [µM] | further results |
| --- | --- | --- | --- | --- | --- |
| COC(=O)c1ccc(S(=O)(=O)Oc2cccc(-c3nc(N)c4c(=O)oc5ccccc5c4n3)c2)s1 | 38.4 | – | > 100 | 47.5 | – |
| Nc1nc(-c2cccc(OS(=O)(=O)c3ccc(Br)s3)c2)nc2c1c(=O)oc1ccccc12 | 36.2 | – | 18.6 | 18.3 | – |
| CS(=O)(=O)Oc1cccc(-c2nc(N)c3c(=O)oc4ccccc4c3n2)c1 | > 100 | 58.6 | > 100 | > 100 | – |
| COc1ccc(S(=O)(=O)Oc2cccc(-c3nc(N)c4c(=O)oc5ccccc5c4n3)c2)cc1OC | 29.7 | 6.32 | 20.6 | 17.6 | – |
| CN(C)c1ccc(S(=O)(=O)Oc2cccc(-c3nc(N)c4c(=O)oc5ccccc5c4n3)c2)cc1 | 3.72 | 0.82 | 1.92 | 1.97 | Activity [5]: 15.4%; Activity [6]: 39.5%; Activity [7]: 65%; Activity [8]: 0.1%; Activity [9]: 0.8 kilobase; Activity [10]: 28.2%; Activity [11]: 6.7%; Activity [12]: Active; Activity [13]: 45.2%; Activity [14]: Active; Activity [15]: 0% |
| Nc1nc(-c2cccc(OS(=O)(=O)c3ccc(Cl)s3)c2)nc2c1c(=O)oc1ccccc12 | 20.9 | – | 14.6 | 11.2 | – |

The remaining molecules from weak to strong by IC50 [1], led by results:

| IC50 [1] [µM] | IC50 [4] [µM] | SMILES | IC50 [2] [µM] | IC50 [3] [µM] | further results |
| --- | --- | --- | --- | --- | --- |
| 18.6 | – | COc1ccc(S(=O)(=O)Oc2cccc(-c3nc(N)c4c(=O)oc5ccccc5c4n3)c2)cc1 | 16.6 | 9.63 | – |
| 17 | 21.1 | Nc1nc(-c2cccc(OS(=O)(=O)c3ccc([N+](=O)[O-])cc3)c2)nc2c1c(=O)oc1ccccc12 | 16.2 | 3.54 | – |
| 15.8 | – | Nc1nc(-c2cccc(OS(=O)(=O)c3ccc(Br)cc3)c2)nc2c1c(=O)oc1ccccc12 | 11.1 | 18.1 | – |
| 11.6 | – | Nc1nc(-c2cccc(OS(=O)(=O)c3ccc(F)cc3)c2)nc2c1c(=O)oc1ccccc12 | 4.23 | 4.91 | – |
| 7.35 | – | Nc1nc(-c2cccc(OS(=O)(=O)c3ccc(C(F)(F)F)cc3)c2)nc2c1c(=O)oc1ccccc12 | 2.34 | 4.32 | – |
| 6.74 | 3.16 | Nc1nc(-c2cccc(OS(=O)(=O)c3ccccc3)c2)nc2c1c(=O)oc1ccccc12 | 3.44 | 2.58 | – |
| 5.62 | 7.35 | Nc1nc(-c2cccc(OS(=O)(=O)c3cccs3)c2)nc2c1c(=O)oc1ccccc12 | 4.24 | 10.1 | – |
| 3.04 | – | COc1cccc2c1C(=O)c1c(O)c3c(c(O)c1C2=O)C[C@@](O)(C(=O)CO)C[C@@H]3O[C@H]1C[C@H](N)[C@H](O)[C@H](C)O1 [DOXORUBICIN] | 2.12 | 1.56 | – |
